Read-outs that look alike come from different tables or passages of the source.
Columns and labels:
B cell = B cell death on activation in the presence of FK506; type: cell-based
early response genes = assay: B cell activation (HEL or anti-mu, 1 hr) with FK506, EGTA or PD98059, early response gene expression on arrays; type: cell-based, mice
Procedure: (§1) Splenic B cells from non-transgenic, Ig^HEL or sHEL/Ig^HEL transgenic mice were purified at room temperature in 1% bovine calf serum in RPMI. The spleen cells were stained with CD4, CD8 and Mac-1 FITC conjugated antibodies (Caltag) and depleted of T cells and macrophages with sheep anti-FITC magnetic beads (Perseptive Biosystems). The remaining cells were 85-95% B220 positive and were either lysed immediately (naive and tolerant cell preps) or stimulated in RPMI with 1% serum at 37° C. at 2-3×10^6 cells/ml. For stimulation experiments, HEL (Sigma) was used at 500 ng/ml, goat anti-mu (Jackson Labs) at 10 μg/ml, FK506 at 10 ng/ml, PD98059 (NEB) at 20 μM unless stated otherwise, ionomycin at 1 μM and EGTA at 3 mM. Cells were preincubated for 45 minutes with PD98059, 15 minutes with FK506 and 2 minutes with EGTA before addition of HEL or anti-mu. Mock stimulations were performed by addition of carrier alone for stimuli or inhibitors. At the end of the incubation, the cells were pelleted by centrifugation, resuspended in a minimal volume of medium (about 50 μl) by pipetting and lysed in 0.5-1 ml Trizol (Gibco BRL).
Trizol lysates were phenol-extracted and precipitated with isopropanol. Poly A+ RNA was purified with Oligotex (Qiagen). cDNA was synthesised with a Superscriptll cDNA synthesis kit (Gibco BRL) using a T7:(dT)24 oligo to prime the first strand and purified by phenol extraction and ethanol precipitation. […]
Each gene on the arrays was tiled as a collection of approximately 20 probe pairs. […] The perfect match—mismatch intensities (PM—MM) were calculated for each probe pair for each gene in each experiment. […] Positive t values associated with a probability of less than 0.1 were scored as increased, negative t values with a probability of less than 0.1 were scored as decreased. The number of increased and decreased probe pairs associated with each gene was determined and called npos and nneg respectively (of the approximately 20 probe pairs tiled for each gene). […] The probability of scoring npos or more of the total number of probe pairs was determined. […]

Egr-1 = assay: B cell activation with PD98059 titration, Egr-1 upregulation monitored on expression arrays; type: cell-based, mice
Procedure: as §1
Trizol lysates were phenol-extracted and precipitated with isopropanol. Poly A+ RNA was purified with Oligotex (Qiagen). cDNA was synthesised with a Superscriptll cDNA synthesis kit (Gibco BRL) using a T7:(dT)24 oligo to prime the first strand and purified by phenol extraction and ethanol precipitation. The cDNA was used as a template for in vitro transcription (IVT) using the Megascript system (Ambion) with the inclusion of biotinylated CTP and UTP. […]
An intensity for each gene was calculated based on a trimmed mean of the PM—MM values. […]
In addition to NFAT, the ERK pathway is also activated in foreign or self antigen-stimulated cells. To determine downstream transcriptional effects of ERK, the effect of MEK, an ERK kinase, on B cell activation was determined. The MEK inhibitor PD98059 was titrated in B cell activation experiments and gene expression was monitored using one of the four arrays in the set (approximately 1600 genes). […]

C=CC[C@@H]1/C=C(\C)C[C@H](C)C[C@H](OC)[C@H]2O[C@@](O)(C(=O)C(=O)N3CCCC[C@H]3C(=O)O[C@H](/C(C)=C/[C@@H]3CC[C@@H](O)[C@H](OC)C3)[C@H](C)[C@@H](O)CC1=O)[C@H](C)C[C@@H]2OC [FK506]
B cell death on activation (B cell): increased B cell death

O=C(O)CN(CCOCCOCCN(CC(=O)O)CC(=O)O)CC(=O)O [EGTA]
effect on the transcript profile of stimulated naïve cells (early response genes; EGTA, FIG. 3C): essentially the same effect on the transcript profile as FK506

COc1cccc(-c2cc(=O)c3ccccc3o2)c1N [PD98059]
sensitivity of induction of three transcripts (Egr-1, NAB2 and Gfi-1) upregulated by both self and foreign antigen (early response genes; FIG. 3D (PD98059), FIG. 3A (FK506)): sensitive | sensitivity of regulation of other early response genes relative to Egr-1 (early response genes; PD98059 titration): less sensitive | inhibition of upregulation of Egr-1 (Egr-1; 20 μM PD98059): totally inhibited | IC50 (Egr-1; B cell activation, PD98059 titrated, read-out: concentration at which upregulation of Egr-1 was 50% inhibited): 5 to 10 µM | IC50 (Egr-1; anti-mu stimulation of non-transgenic B cells, FIG. 3D, read-out: IC50 for inhibition of upregulation of Egr-1): ~5 µM

— patent US6913882B2, “Methods of screening for B cell activity modulators” (Affymetrix, Inc., priority 1999, dated 2005)
